{"source": "patent US10441550B2", "about": "“Nanofibrous materials as drug, protein, or genetic release vehicles” (BioSurfaces, Inc., priority 2005, dated 2019)", "key": {"[1]": {"settings": "organism not given; cited from earlier work"}, "Candida albicans": {"tested_on": "Candida albicans", "experiment": "Turbidity assay (broth macrodilution, NCCLS M27-A)", "type": "cell-based", "settings": "40 micrograms Diflucan in solution; activity decreases as inoculum increases", "procedure": "Candida albicans was purchased from ATCC.\nA broth macrodilution assay was performed based on the NCCLS M27-A protocol. The stock fungal inoculum concentration was determined via backplating a set volume of the diluted fungus broth onto Trypticase Soy Agar plates. The number of colony forming units (cfu) grown per plate was then counted and extrapolated to determine the starting Candida concentration.\nThe stock fungus solution was then diluted to 10^6, 10^5 and 10^4 cfu/ml. After incubating the individual test segments in 2 ml of the fungus solutions for 24 hours at 30° C., the optical density of the broth solutions was measured at 492 nm."}}, "data": [{"smiles": "O=C(O)c1cn(C2CC2)c2cc(N3CCNCC3)c(F)cc2c1=O", "note": "[Cipro, Ciprofloxacin]", "values": [{"measurement": "MIC50", "setting": "[1]", "value": 0.26, "unit": "micrograms per ml"}]}, {"smiles": "OC(Cn1cncn1)(Cn1cncn1)c1ccc(F)cc1F", "note": "[Diflucan, Fluconazole]", "values": [{"measurement": "antifungal activity", "setting": "Candida albicans", "value": "excellent antifungal activity"}]}]}
